# Experimental data reported in patent US11542255B2, “Sulfonylureas and sulfonylthioureas as NLRP3 inhibitors” (Inflazome Limited, priority 2017, dated 2023).
# pIC50: −log10 of the molar value. Where a name gives a salt, the structure may show the parent alone.
# Key:
# NLRP3 [1] = target: T1, NLRP3 (Homo sapiens, UniProt Q96P20); experiment: Human whole blood IL1β release assay (LPS + nigericin, AlphaLisa IL-1β); assay type: cell-based; parameters: Human whole blood in Li-heparin tubes was obtained from healthy donors from a volunteer donor panel; from tissue; host or cells: human whole blood from healthy donors; conditions: NLRP3 inhibitory activity, 1 μg/ml LPS, 10 μM nigericin, IL-1β release, read-out: HWB IC50
# T1 sequence (Q96P20 whole entry): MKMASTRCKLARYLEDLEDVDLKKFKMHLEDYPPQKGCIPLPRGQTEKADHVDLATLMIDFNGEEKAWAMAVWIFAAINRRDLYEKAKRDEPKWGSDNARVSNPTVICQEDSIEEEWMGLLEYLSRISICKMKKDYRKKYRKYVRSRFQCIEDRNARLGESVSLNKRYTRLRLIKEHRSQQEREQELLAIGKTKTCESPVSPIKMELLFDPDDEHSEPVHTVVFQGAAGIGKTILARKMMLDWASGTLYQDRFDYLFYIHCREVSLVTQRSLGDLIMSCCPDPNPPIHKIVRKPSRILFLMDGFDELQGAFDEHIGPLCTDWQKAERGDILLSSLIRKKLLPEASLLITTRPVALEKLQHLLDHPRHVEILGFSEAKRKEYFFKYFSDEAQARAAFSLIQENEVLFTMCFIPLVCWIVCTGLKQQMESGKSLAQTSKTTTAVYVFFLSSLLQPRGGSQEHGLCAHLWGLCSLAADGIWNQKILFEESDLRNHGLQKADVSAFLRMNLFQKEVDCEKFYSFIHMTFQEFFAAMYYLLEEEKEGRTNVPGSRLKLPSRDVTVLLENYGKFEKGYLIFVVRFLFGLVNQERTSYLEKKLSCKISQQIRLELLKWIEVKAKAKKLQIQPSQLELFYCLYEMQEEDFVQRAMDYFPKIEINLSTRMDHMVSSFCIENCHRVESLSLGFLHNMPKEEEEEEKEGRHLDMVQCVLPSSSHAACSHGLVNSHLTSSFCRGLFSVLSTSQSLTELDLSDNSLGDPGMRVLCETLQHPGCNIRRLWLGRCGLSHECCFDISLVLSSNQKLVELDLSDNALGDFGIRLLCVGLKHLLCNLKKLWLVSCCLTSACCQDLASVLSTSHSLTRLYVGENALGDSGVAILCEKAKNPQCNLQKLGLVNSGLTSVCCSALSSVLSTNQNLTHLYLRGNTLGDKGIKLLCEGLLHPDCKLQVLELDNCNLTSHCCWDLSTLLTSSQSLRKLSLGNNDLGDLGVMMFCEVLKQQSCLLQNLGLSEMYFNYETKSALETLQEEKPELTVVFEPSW
# Description: For systemic delivery, the ability to inhibit NLRP3 when the compounds are present within the bloodstream is of great importance. For this reason, the NLRP3 inhibitory activity of a number of compounds in human whole blood was investigated in accordance with the following protocol.
# Human whole blood in Li-heparin tubes was obtained from healthy donors from a volunteer donor panel. • 1. Plate out 80 μl of whole blood containing 1 μg/ml of LPS in 96-well, clear bottom cell culture plate (Corning #3585) • 2. Add 10 μl compound (8 points half-log dilution with 10 μM top dose) or vehicle (DMSO 0.1% FAC) to the appropriate wells • 3. Incubate for 3 hrs at 37° C., 5% CO2 • 4. Add 10 μl Nigericin (Sigma #N7143) (10 μM FAC) to all wells • 5. Incubate for 1 hr at 37° C., 5% CO2 • 6. At the end of the incubation period, spin plates at 300×g for 5 mins to pellet cells and remove 20 μl of supernatant and add to 96-well v-bottom plates for IL-1β analysis (note: these plates containing the supernatants can be stored at −80° C. to be analysed at a later date) • 7. IL-1β was measured according to the manufacturer protocol (Perkin Elmer-AlphaLisa IL-1β Kit AL220F-5000) • 8. IC50 data is fitted to a non-linear regression equation (log inhibitor vs response-variable slope 4-parameters)
# NLRP3 [2] = target: T1, NLRP3; experiment: THP-1 cells pyroptosis assay (LPS + nigericin, resazurin readout); assay type: cell-based; parameters: Seed THP-1 cells (25,000 cells/well) containing 1.0 μg/ml LPS in 40 μl of RPMI medium; host or cells: THP-1 cells; conditions: NLRP3 inhibitory activity, 1.0 μg/ml LPS, 5 μM nigericin
# Description: THP-1 cells (ATCC #TIB-202) were grown in RPMI containing L-glutamine (Gibco #11835) supplemented with 1 mM sodium pyruvate (Sigma #S8636) and penicillin (100 units/ml)/streptomycin (0.1 mg/ml) (Sigma #P4333) in 10% Fetal Bovine Serum (FBS) (Sigma #F0804). The cells were routinely passaged and grown to confluency (˜10^6 cells/ml). On the day of the experiment, THP-1 cells were harvested and resuspended into RPMI medium (without FBS). The cells were then counted and viability (>90%) checked by Trypan blue (Sigma #T8154). Appropriate dilutions were made to give a concentration of 625,000 cells/ml. To this diluted cell solution was added LPS (Sigma #L4524) to give a […] Final Assay Concentration (FAC). 40 μl of the final preparation was aliquoted into each well of a 96-well plate. The plate thus prepared was used for compound screening.
# The following method step-by-step assay was followed for compound screening. • 1. Seed THP-1 cells (25,000 cells/well) containing 1.0 μg/ml LPS in 40 μl of RPMI medium (without FBS) in 96-well, black walled, clear bottom cell culture plates coated with poly-D-lysine (VWR #734-0317) • 2. Add 5 μl compound (8 points half-log dilution, with 10 μM top dose) or vehicle (DMSO 0.1% FAC) to the appropriate wells • 3. Incubate for 3 hrs at 37° C. in 5% CO2 • 4. Add 5 μl nigericin (Sigma #N7143) (FAC 5 μM) to all wells • 5. Incubate for 1 hr at 37° C. and 5% CO2 • 6. At the end of the incubation period, spin plates at 300×g for 3 mins and remove supernatant • 7. Then add 50 μl of resazurin (Sigma #R7017) (FAC 100 μM resazurin in RPMI medium without FBS) and incubate plates for a further 1-2 hrs at 37° C. and 5% CO2 • 8. Plates were read in an Envision reader at Ex 560 nm and Em 590 nm • 9. IC50 data is fitted to a non-linear regression equation (log inhibitor vs response-variable slope 4-parameters)
SMILES,pIC50 (NLRP3 [1]),pIC50 (NLRP3 [2])
"Cc1cc(-c2cc(F)cc(C(C)C)c2NC(=O)NS(=O)(=O)c2cc(CN(C)C)n(C)n2)n(C)n1 [Example 40, N-((2-(1,3-Dimethyl-1H-pyrazol-5-yl)-4-fluoro-6-isopropylphenyl)carbamoyl)-5-((dimethylamino)methyl)-1-methyl-1H-pyrazole-3-sulfonamide]",6.10 to 6.40,6.19 to 6.80
COc1cc(-c2ccc3c(c2NC(=O)NS(=O)(=O)c2cc(CN(C)C)n(C(C)C)n2)CCC3)ccn1 [Example 181],> 6.40,> 7.40
"CC(C)n1nc(S(=O)(=O)NC(=O)Nc2c3c(cc4c2CCC4)CCC3)cc1CN(C)C [Example 68, 5-((Dimethylamino)methyl)-N-((1,2,3,5,6,7-hexahydro-s-indacen-4-yl)carbamoyl)-1-isopropyl-1H-pyrazole-3-sulfonamide]",6.10 to 6.40,> 7.40
"CN(C)C1(c2cc(S(=O)(=O)NC(=O)Nc3c4c(cc5c3CCC5)CCC4)nn2C)COC1 [Example 115, 5-(3-(Dimethylamino)oxetan-3-yl)-N-((1,2,3,5,6,7-hexahydro-s-indacen-4-yl)carbamoyl)-1-methyl-1H-pyrazole-3-sulfonamide]",5.80 to 6.10,6.19 to 6.80
CCC(c1cc(S(=O)(=O)NC(=O)Nc2c(-c3ccnc(OC)c3)ccc3c2CCC3)nn1C(C)C)N(C)C (stereo not shown) [Example 180],> 6.40,6.80 to 7.40
"CC(C)c1cc(F)cc(-c2cncnc2)c1NC(=O)NS(=O)(=O)c1cc(C(=O)N(C)C)n(C)n1 [Example 135, 3-(N-((4-Fluoro-2-isopropyl-6-(pyrimidin-5-yl)phenyl)carbamoyl)sulfamoyl)-N,N,1-trimethyl-1H-pyrazole-5-carboxamide, sodium Salt]",> 6.40,6.19 to 6.80
"CC(c1cc(S(=O)(=O)NC(=O)Nc2c3c(cc4c2CCC4)CCC3)nn1C1CC1)N(C)C (stereo not shown) [Example 22, 1-Cyclopropyl-5-(1-(dimethylamino)ethyl)-N-((1,2,3,5,6,7-hexahydro-s-indacen-4-yl)carbamoyl)-1H-pyrazole-3-sulfonamide]",6.10 to 6.40,> 7.40
CNCc1cc(S(=O)(=O)NC(=O)Nc2c(-c3ccnc(OC)c3)ccc3c2CCC3)nn1C1CC1 [Example 178],> 6.40,6.80 to 7.40
"CC(C)c1cc(F)cc(-c2cccc(C#N)c2)c1NC(=O)NS(=O)(=O)c1cc(CN(C)C)n(C)n1 [Example 46, N-((3′-Cyano-5-fluoro-3-isopropyl-[1,1′-biphenyl]-2-yl)carbamoyl)-5-((dimethylamino)methyl)-1-methyl-1H-pyrazole-3-sulfonamide]",> 6.40,6.80 to 7.40
"CN(CCO)Cc1cc(S(=O)(=O)NC(=O)Nc2c3c(cc4c2CCC4)CCC3)nn1C [Example 117, N-((1,2,3,5,6,7-Hexahydro-s-indacen-4-yl)carbamoyl)-5-(((2-hydroxyethyl)(methyl)amino)methyl)-1-methyl-1H-pyrazole-3-sulfonamide]",> 6.40,6.80 to 7.40
"CCC(c1cc(S(=O)(=O)NC(=O)Nc2c(C(C)C)cc(Cl)cc2C(C)C)nn1C)N(C)C (stereo not shown) [Example 64, N-((4-Chloro-2,6-diisopropylphenyl)carbamoyl)-5-(1-(dimethylamino)propyl)-1-methyl-1H-pyrazole-3-sulfonamide]",5.80 to 6.10,> 7.40
"CC(C)Oc1cc(-c2cc(F)cc(C(C)C)c2NC(=O)NS(=O)(=O)c2cc(C(=O)N(C)C)n(C)n2)ccn1 [Example 176, 3-(N-((4-Fluoro-2-(2-isopropoxypyridin-4-yl)-6-isopropyl-phenyl)carbamoyl)sulfamoyl)-N,N,1-trimethyl-1H-pyrazole-5-carboxamide, sodium salt]",5.49 to 5.80,6.19 to 6.80
"CC(C)n1nc(S(=O)(=O)NC(=O)Nc2c3c(cc4c2CCC4)CCC3)cc1C1(N(C)C)CC1 [Example 32, 5-(1-(Dimethylamino)cyclopropyl)-N-((1,2,3,5,6,7-hexahydro-s-indacen-4-yl)carbamoyl)-1-isopropyl-1H-pyrazole-3-sulfonamide]",6.10 to 6.40,6.80 to 7.40
"CC(C)c1cc(F)cc(C(C)C)c1NC(=O)NS(=O)(=O)c1cc(CN2CCCC2)n(C)n1 [Example 81, N-((4-Fluoro-2,6-diisopropylphenyl)carbamoyl)-1-methyl-5-(pyrrolidin-1-ylmethyl)-1H-pyrazole-3-sulfonamide]",> 6.40,6.19 to 6.80
"COc1cc(-c2cc(F)cc(C(C)C)c2NC(=O)NS(=O)(=O)c2cc(CN(C)C)n(C)n2)ccn1 [Example 48, 5-((Dimethylamino)methyl)-N-((4-fluoro-2-isopropyl-6-(2-methoxypyridin-4-yl)phenyl)carbamoyl)-1-methyl-1H-pyrazole-3-sulfonamide]",> 6.40,> 7.40

# More lines, now with the values ahead:
pIC50 (NLRP3 [1]),pIC50 (NLRP3 [2]),SMILES
5.49 to 5.80,> 7.40,"CC(C)n1nc(S(=O)(=O)NC(=O)Nc2c3c(cc4c2CCC4)CCC3)cc1CN(C)CCF [Example 57, 5-(((2-Fluoroethyl)(methyl)amino)methyl)-N-((1,2,3,5,6,7-hexahydro-s-indacen-4-yl)carbamoyl)-1-isopropyl-1H-pyrazole-3-sulfonamide, Sodium Salt]"
6.10 to 6.40,6.80 to 7.40,CNCc1cc(S(=O)(=O)NC(=O)Nc2c3c(cc4c2CCC4)CCC3)nn1C1CC1 [Example 183]
5.49 to 5.80,6.80 to 7.40,"CC(C)c1cc(Cl)cc(C(C)C)c1NC(=O)NS(=O)(=O)c1cc(CN(C)C)n(C(C)C)n1 [Example 55, N-((4-Chloro-2,6-diisopropylphenyl)carbamoyl)-5-((dimethylamino)methyl)-1-isopropyl-1H-pyrazole-3-sulfonamide]"
5.00 to 5.49,> 7.40,"CN(C)Cc1cc(S(=O)(=O)NC(=O)Nc2c3c(cc4c2CCC4)CCC3)nn1C(C)(C)C [Example 37, 1-(tert-Butyl)-5-((dimethylamino)methyl)-N-((1,2,3,5,6,7-hexahydro-s-indacen-4-yl)carbamoyl)-1H-pyrazole-3-sulfonamide]"
6.10 to 6.40,6.19 to 6.80,"CC(C)c1cc(F)cc(-c2ccccc2)c1NC(=O)NS(=O)(=O)c1cc(CN(C)C)n(C)n1 [Example 66, 5-((Dimethylamino)methyl)-N-((5-fluoro-3-isopropyl-[1,1′-biphenyl]-2-yl)carbamoyl)-1-methyl-1H-pyrazole-3-sulfonamide]"
5.49 to 5.80,6.19 to 6.80,"CN1CCn2nc(S(=O)(=O)NC(=O)Nc3c4c(cc5c3CCC5)CCC4)cc2C1 [Example 5, N-((1,2,3,5,6,7-Hexahydro-s-indacen-4-yl)carbamoyl)-5-methyl-4,5,6,7-tetrahydropyrazolo[1,5-a]pyrazine-2-sulfonamide]"
6.10 to 6.40,6.80 to 7.40,CCn1nc(S(=O)(=O)NC(=O)Nc2c(-c3cccc(C#N)c3)ccc3c2CCC3)cc1CN(C)C [Example 173]
5.49 to 5.80,6.19 to 6.80,"Cn1nc(S(=O)(=O)NC(=O)Nc2c3c(cc4c2CCC4)CCC3)cc1CN1CC(F)C1 [Example 80, 5-((3-Fluoroazetidin-1-yl)methyl)-N-((1,2,3,5,6,7-hexahydro-s-indacen-4-yl)carbamoyl)-1-methyl-1H-pyrazole-3-sulfonamide]"
